Patent US7615361B2, “Toxicity screening methods” (Ceetox, Inc., priority 2006, dated 2009)
In brackets after ≈: the same amount, converted by molar mass. Like-named read-outs stand apart in the source and are kept apart here.

Key:
MTT reduction [1] = assay type: cell-based, rat
Procedure, shortened: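 Cardiomyocytes from neonatal rats were exposed to the compound and cell function was monitored by tetrazolium (MTT) dye reduction. Values are group means over n=3-7.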

[2] = Solubility in culture medium (nephelometry); assay type: physicochemical
Procedure: Solubility: The test compounds were prepared in DMSO and the appropriate amounts were then added to complete medium containing 10% bovine serum […] at 37° C. The samples were evaluated using a light scattering technique and a Nephaloskan instrument.
Solubility Assay: The test compounds were prepared in DMSO and the appropriate amounts were then added to complete medium containing 10% bovine serum at 37° C. The samples were evaluated using a light scattering technique and a Nephaloskan instrument.

[3] = Cell number (propidium iodide); assay type: cell-based, rat; conditions: rat
Procedure, shortened: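 Rat hepatoma H4IIE cells exposed to compound in complete medium, then lysed with Triton X-100 containing propidium iodide; fluorescence read at 540/610 nm. Blank-subtracted RFU expressed as percent of untreated control cells, means of n=3-7.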

P-glycoprotein (PgP) = P-glycoprotein (PgP) binding: MTT with and without cyclosporin A; assay type: cell-based, rat; conditions: H4IIE 24 HR; for % Control (Compound + CSA) / % Control (Compound): MTT, 50 μM; for % Control (Compound + CSA): with cyclosporin A; for % Control (Compound): without CSA; for % Difference: 1-20% low, 20-50% moderate, 50-100% high PgP interaction
Procedure: Several antiviral drugs are substrates for P-glycoprotein transporter (PgP).
P-glycoprotein (PgP) transport proteins are expressed in the bile canalicular membrane of normal liver. However, in neoplastic cells it is not uncommon to have expression of this transporter system in the plasma membrane. […] The existence of these transporters was evaluated with the Calcein-AM assay and with known substrates of PgP.

[4] = MemTox membrane leakage (AK / α-GST); assay type: cell-based, rat
Procedure, shortened: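 Neonatal rat cardiomyocytes were dosed, and the culture medium was collected at the end of exposure to measure total leaked adenylate kinase (luminescence) and/or α-GST (ELISA, 450/650 nm). Percent dead cells was set against 1 mM digitonin as maximum release, then converted to percent live. Values are means of n=3-7.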

[5] = Intracellular total glutathione (GSH); assay type: cell-based, rat; conditions: rat
Procedure, shortened: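 Rat hepatoma H4IIE cells were exposed to compound in dosing solutions made in complete culture medium, then harvested for biochemical measurement of intracellular total glutathione as an oxidative-stress marker. Values are exposure-group means, n=3-7.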

Intracellular ATP levels = assay type: cell-based, rat
Procedure, shortened: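 Neonatal rat cardiomyocytes exposed to the compound; cellular ATP measured by luciferin/luciferase luminescence after lysis with an ATPase-inhibiting reagent, quantified against an ATP calibration curve in matching matrix (pmol ATP/million cells). Background-corrected luminescence expressed as percent of control; means of n=3-7.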

MTT reduction [6] = assay type: cell-based, rat; conditions: rat
Procedure, shortened: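 Rat hepatoma H4IIE cells exposed to compound prepared in complete culture medium, with tetrazolium dye (MTT) reduction used as a mitochondrial-function read-out of cytotoxicity. Values are means of each exposure group (n=3-7).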

[7] = 37 °C, plasma or biological fluid, kinetic from dmso stock, dosing medium with 20% serum, 37° C., CM 24 HR, read-out: Highest Soluble Concentration Tested
[8] = 37 °C, plasma or biological fluid, kinetic from dmso stock, dosing medium with 20% serum, 37° C., H4IIE 24 HR, read-out: Highest Soluble Concentration Tested

| Compound | CC50 at 24 h (MTT reduction [1]; rat) [µM] | solubility [2, 7] [µM] | solubility [2, 8] [µM] | CC50 at 24 h ([3]; Cell Number TC50) [µM] | % Control (Compound + CSA) (P-glycoprotein (PgP)) [%] | % Control (Compound) (P-glycoprotein (PgP)) [%] | % Difference (P-glycoprotein (PgP)) [%] | CC50 at 24 h ([4]; rat) [µM] | CC50 at 24 h ([5]; Total GSH TC50) [µM] | CC50 at 24 h (Intracellular ATP levels; rat) [µM] | CC50 at 24 h (MTT reduction [6]; MTT TC50) [µM] | also measured |
| --- | --- | --- | --- | --- | --- | --- | --- | --- | --- | --- | --- | --- |
| Cc1cccc(C)c1OCC(=O)N[C@@H](Cc1ccccc1)[C@@H](O)C[C@H](Cc1ccccc1)NC(=O)[C@H](C(C)C)N1CCCNC1=O [LOPINAVIR, lopinavir] | 72 | 50 (≈ 31.4 µg/mL) | 50 (≈ 31.4 µg/mL) | > 300 | 82.1 | 98.0 | 16.2 | 76 | 99 | 72 | 184 | – |
| O=C1c2c(O)ccc(O)c2C(=O)c2c(NCCNCCO)ccc(NCCNCCO)c21 [MITOXANTRONE, mitoxantrone] | 1 | – | – | < 1 | 10.4 | 69.9 | 85.1 | 2 | 247 | 2 | > 300 | solubility ([2]; dosing medium with 20% serum, 37° C., CM 24 HR, read-out: Highest Soluble Concentration Tested): 300 µM (≈ 133 µg/mL); solubility ([2]; dosing medium with 20% serum, 37° C., H4IIE 24 HR, read-out: Highest Soluble Concentration Tested): 300 µM (≈ 133 µg/mL) |
| COc1cccc2c1C(=O)c1c(O)c3c(c(O)c1C2=O)C[C@@](O)(C(=O)CO)C[C@@H]3O[C@H]1C[C@H](N)[C@H](O[C@@H]2CCCCO2)[C@H](C)O1 [PIRARUBICIN, pirarubicin] | – | – | – | – | 33.6 | 51.9 | 35.2 | – | – | – | – | CC50 at 24 h (MTT reduction [1]; neonatal rat cardiomyocytes, rat cardiomyocytes (CM), 24 HR exposure, read-out: MTT TC50): 7 µM; solubility ([2]; plasma or biological fluid, kinetic from dmso stock, dosing medium with 20% serum, 37° C., CM 24 HR, read-out: Highest Soluble Concentration Tested): 50 µM (≈ 31.4 µg/mL); CC50 at 24 h ([3]; H4IIE rat hepatoma cells, H4IIE, 24 HR exposure, read-out: Cell Number TC50): 8 µM; CC50 at 24 h ([4]; neonatal rat cardiomyocytes, rat cardiomyocytes (CM), 24 HR exposure, read-out: MemTox TC50): 6 µM; CC50 at 24 h ([5]; H4IIE rat hepatoma cells, H4IIE, 24 HR, read-out: Total GSH TC50): 17 µM; CC50 at 24 h (Intracellular ATP levels; neonatal rat cardiomyocytes, rat cardiomyocytes (CM), 24 HR exposure, read-out: ATP TC50): 7 µM; CC50 at 24 h (MTT reduction [6]; H4IIE rat hepatoma cells, H4IIE, 24 HR exposure, read-out: MTT TC50): 16 µM |
| C=C(C)[C@H]1Cc2c(ccc3c2O[C@@H]2COc4cc(OC)c(OC)cc4[C@@H]2C3=O)O1 [ROTENONE, Rotenone] | – | 100 (≈ 39.4 µg/mL) | 100 (≈ 39.4 µg/mL) | – | 0.0 | 0.0 | – | – | – | – | – | CC50 at 24 h (MTT reduction [1]; rat cardiomyocytes (CM), 24 HR exposure, read-out: MTT TC50): 33 µM; solubility ([2]; 37 °C, plasma or biological fluid, kinetic from dmso stock, culture media containing 20% serum, NRK 6 HR, read-out: Highest Soluble Concentration): 10 µM (≈ 3.94 µg/mL); solubility ([2]; 37 °C, plasma or biological fluid, kinetic from dmso stock, culture media containing 20% serum, NRK 24 HR, read-out: Highest Soluble Concentration): 10 µM (≈ 3.94 µg/mL); solubility ([2]; 37 °C, plasma or biological fluid, kinetic from dmso stock, dosing medium, 37° C., C32 24 HR, read-out: Highest Soluble Concentration): 10 µM (≈ 3.94 µg/mL); solubility ([2]; 37 °C, plasma or biological fluid, kinetic from dmso stock, dosing medium, 37° C., HUVEC 24 HR, read-out: Highest Soluble Concentration): 10 µM (≈ 3.94 µg/mL); solubility ([2]; 37 °C, plasma or biological fluid, kinetic from dmso stock, dosing medium, 37° C., NHEM 24 HR, read-out: Highest Soluble Concentration): 100 µM (≈ 39.4 µg/mL); solubility ([2]; 37 °C, plasma or biological fluid, kinetic from dmso stock, dosing medium, 37° C., SK-MEL28 24 HR, run #2, read-out: Highest Soluble Concentration): 100 µM (≈ 39.4 µg/mL); solubility ([2]; 37 °C, plasma or biological fluid, kinetic from dmso stock, dosing medium, 37° C., SK-MEL28 24 HR, read-out: Highest Soluble Concentration): 10 µM (≈ 3.94 µg/mL); solubility ([2]; 37 °C, plasma or biological fluid, kinetic from dmso stock, dosing medium, 37° C., SK-MEL28 72 HR, run #2, read-out: Highest Soluble Concentration): 100 µM (≈ 39.4 µg/mL); solubility ([2]; 37 °C, plasma or biological fluid, kinetic from dmso stock, dosing medium, 37° C., human hepatocytes 24 HR, read-out: Highest Soluble Concentration): 10 µM (≈ 3.94 µg/mL); CC50 at 24 h ([3]; H4IIE, 24 HR exposure, read-out: Cell Number TC50): 0.04 µM; CC50 at 24 h ([4]; rat cardiomyocytes (CM), 24 HR exposure, read-out: MemTox TC50): 56 µM; CC50 at 24 h ([5]; H4IIE, 24 HR, read-out: Total GSH TC50): 0.05 µM; CC50 at 24 h (Intracellular ATP levels; rat cardiomyocytes (CM), 24 HR exposure, read-out: ATP TC50): 8 µM; CC50 at 24 h (MTT reduction [6]; H4IIE, 24 HR exposure, read-out: MTT TC50): 0.07 µM |
